Measured values: the supplement of paper PMC10307832

What was measured:
Test in all cases: relative viability (nuclei count vs DMSO), 5 days (fraction); higher = more cells survive
ChaGo-K-1 = system: ChaGo-K-1
In short: (§1)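 Nuclei were stained with Hoechst during a one-step fixation (final 0.05% Triton X-100, 1% formaldehyde, 1 ug/ml Hoechst) carried out 5 days after dosing, then counted on 4× images. The cells, lung cancer lines in 1536-well plates, had been dosed by pin tool the day after seeding with one drug alone or a fixed anchor-drug dose plus five library-drug doses (not always all listed) in √10 steps. Relative viability is the nuclei count in treated wells divided by that in vehicle wells, and each value is the median of duplicate plates.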

EMC-BAC-2 = system: EMC-BAC-2
In short: as §1

EPLC-272H = system: EPLC-272H
In short: as §1

H3255 = system: H3255
In short: as §1

HCC-44 = system: HCC-44
In short: as §1

HCC-827 = system: HCC-827
In short: as §1

LCLC-103H = system: LCLC-103H
In short: as §1

LCLC-97TM1 = system: LCLC-97TM1
In short: as §1

NCI-H1355 = system: NCI-H1355
In short: as §1

NCI-H1563 = system: NCI-H1563
In short: as §1

NCI-H1651 = system: NCI-H1651
In short: as §1

NCI-H1944 = system: NCI-H1944
In short: as §1

NCI-H1993 = system: NCI-H1993
In short: as §1

NCI-H2085 = system: NCI-H2085
In short: as §1

NCI-H2087 = system: NCI-H2087
In short: as §1

NCI-H23 = system: NCI-H23
In short: as §1

NCI-H2405 = system: NCI-H2405
In short: as §1

NCI-H322M = system: NCI-H322M
In short: as §1

NCI-H520 = system: NCI-H520
In short: as §1

NCI-H650 = system: NCI-H650
In short: as §1

SK-MES-1 = system: SK-MES-1
In short: as §1

UMC-11 = system: UMC-11
In short: as §1

C[C@@H]1CN(CC(=O)Nc2ccc3c(c2)Cc2cccc(-c4cc(=O)cc(N5CCOCC5)o4)c2S3)C[C@H](C)O1 + C[C@@H](Oc1cc(-c2cnn(C3CCNCC3)c2)cnc1N)c1c(Cl)ccc(F)c1Cl [Crizotinib] (partner 1 µM)
relative viability (ChaGo-K-1; first compound 0.1265 µM): 1.09
relative viability (ChaGo-K-1; first compound 0.4 µM): 1.21
relative viability (ChaGo-K-1; first compound 4 µM): 1.13
relative viability (EMC-BAC-2; first compound 0.04 µM): 0.57
relative viability (EMC-BAC-2; first compound 0.1265 µM): 0.761
relative viability (EMC-BAC-2; first compound 0.4 µM): 0.75
relative viability (EMC-BAC-2; first compound 4 µM): 0.819
relative viability (EPLC-272H; first compound 0.04 µM): 1.27
relative viability (EPLC-272H; first compound 0.1265 µM): 0.971
relative viability (EPLC-272H; first compound 0.4 µM): 0.997
relative viability (EPLC-272H; first compound 4 µM): 0.83
relative viability (H3255; first compound 0.04 µM): 0.824
relative viability (H3255; first compound 0.1265 µM): 0.785
relative viability (H3255; first compound 0.4 µM): 0.814
relative viability (H3255; first compound 4 µM): 0.719
relative viability (HCC-44; first compound 0.04 µM): 0.853
relative viability (HCC-44; first compound 0.1265 µM): 0.828
relative viability (HCC-44; first compound 0.4 µM): 0.699
relative viability (HCC-44; first compound 4 µM): 0.526
relative viability (HCC-827; first compound 0.04 µM): 1
relative viability (HCC-827; first compound 0.1265 µM): 0.817
relative viability (HCC-827; first compound 0.4 µM): 0.929
relative viability (HCC-827; first compound 4 µM): 0.983
relative viability (LCLC-103H; first compound 0.04 µM): 1.08
relative viability (LCLC-103H; first compound 0.1265 µM): 1.03
relative viability (LCLC-103H; first compound 0.4 µM): 0.984
relative viability (LCLC-103H; first compound 4 µM): 1.03
relative viability (LCLC-97TM1; first compound 0.1265 µM): 0.396
relative viability (LCLC-97TM1; first compound 0.4 µM): 0.287
relative viability (LCLC-97TM1; first compound 4 µM): 0.337
relative viability (NCI-H1355; first compound 0.04 µM): 0.955
relative viability (NCI-H1355; first compound 0.1265 µM): 1.07
relative viability (NCI-H1355; first compound 0.4 µM): 1.03
relative viability (NCI-H1355; first compound 4 µM): 1.1
relative viability (NCI-H1563; first compound 0.04 µM): 0.852
relative viability (NCI-H1563; first compound 0.1265 µM): 0.849
relative viability (NCI-H1563; first compound 0.4 µM): 0.688
relative viability (NCI-H1563; first compound 4 µM): 0.747
relative viability (NCI-H1651; first compound 0.04 µM): 0.842
relative viability (NCI-H1651; first compound 0.1265 µM): 0.859
relative viability (NCI-H1651; first compound 0.4 µM): 0.903
relative viability (NCI-H1651; first compound 4 µM): 0.882
relative viability (NCI-H1944; first compound 0.1265 µM): 1.09
relative viability (NCI-H1944; first compound 0.4 µM): 1.22
relative viability (NCI-H1944; first compound 4 µM): 1.16
relative viability (NCI-H1993; first compound 0.04 µM): 0.876
relative viability (NCI-H1993; first compound 0.1265 µM): 0.846
relative viability (NCI-H1993; first compound 0.4 µM): 0.661
relative viability (NCI-H1993; first compound 4 µM): 0.85
relative viability (NCI-H2085; first compound 0.04 µM): 0.922
relative viability (NCI-H2085; first compound 0.1265 µM): 0.88
relative viability (NCI-H2085; first compound 0.4 µM): 0.773
relative viability (NCI-H2085; first compound 4 µM): 0.665
relative viability (NCI-H2087; first compound 0.04 µM): 0.936
relative viability (NCI-H2087; first compound 0.1265 µM): 0.929
relative viability (NCI-H2087; first compound 0.4 µM): 0.895
relative viability (NCI-H2087; first compound 4 µM): 0.748
relative viability (NCI-H23; first compound 0.04 µM): 0.521
relative viability (NCI-H23; first compound 0.1265 µM): 0.487
relative viability (NCI-H23; first compound 0.4 µM): 0.369
relative viability (NCI-H23; first compound 4 µM): 0.487
relative viability (NCI-H2405; first compound 0.04 µM): 0.754
relative viability (NCI-H2405; first compound 0.1265 µM): 0.855
relative viability (NCI-H2405; first compound 0.4 µM): 0.893
relative viability (NCI-H2405; first compound 4 µM): 0.8
relative viability (NCI-H322M; first compound 0.04 µM): 0.599
relative viability (NCI-H322M; first compound 0.1265 µM): 0.863
relative viability (NCI-H322M; first compound 0.4 µM): 1.08
relative viability (NCI-H322M; first compound 4 µM): 0.959
relative viability (NCI-H520; first compound 0.04 µM): 0.64
relative viability (NCI-H520; first compound 0.1265 µM): 0.711
relative viability (NCI-H520; first compound 0.4 µM): 0.497
relative viability (NCI-H520; first compound 4 µM): 0.534
relative viability (NCI-H650; first compound 0.04 µM): 0.433
relative viability (NCI-H650; first compound 0.1265 µM): 0.753
relative viability (NCI-H650; first compound 0.4 µM): 0.727
relative viability (NCI-H650; first compound 4 µM): 0.602
relative viability (SK-MES-1; first compound 0.04 µM): 1.08
relative viability (SK-MES-1; first compound 0.1265 µM): 0.991
relative viability (SK-MES-1; first compound 0.4 µM): 0.917
relative viability (SK-MES-1; first compound 4 µM): 0.774
relative viability (UMC-11; first compound 0.04 µM): 0.747
relative viability (UMC-11; first compound 0.1265 µM): 0.644
relative viability (UMC-11; first compound 0.4 µM): 0.613
relative viability (UMC-11; first compound 4 µM): 0.385
